“Also recorded” adds a separate entry of the source.
How the values were obtained:
[1] = test system: human neural stem cells (hNSCs); test: Neuronal differentiation of human neural stem cells (TUJ-1 staining); format: cell-based
Excerpt: FIG. 1 is a dose-response curve showing the effect of MCC-257 on neuronal differentiation of human neural stem cells. Data is presented as the percentage of the neuronal positive control, with basal media values subtracted.
Human neural stem cells (hNSCs) were isolated and grown in monolayer culture, plated, treated with varying concentrations of MCC-257, and stained with TUJ-1 antibody for the detection of neuronal differentiation as described in U.S. Patent Publication 2007/0015138 (incorporated by reference). Mitogen-free test media with a positive control for neuronal differentiation was used along with basal media without growth factors as a negative control.
The data is presented as a percent of neuronal positive control.

male F344 rats [2] = test: Novelty-suppressed feeding test (NSF), chronic dosing; format: in vivo, rat; conditions: vs vehicle, p<0.05 one-tailed Student's t-test, FIG. 2
Description: The white bar represents the vehicle control (DI water; n=10), the black bar represents fluoxetine dosed at 12.5 mg/kg (n=11) and the grey bar represents MCC-257 dosed at 0.3 mg/kg (n=11). Vehicle and compounds were administered orally once daily (q.d.) for 20 days prior to behavioral testing. Behavioral testing was carried out as described in Example 2. […] Values are the mean±SEM.
The NSF is a conflict test in which food-deprived animals are presented with a food pellet placed in the center of a brightly-lit open field. This paradigm elicits competing motivations: the drive to eat the food pellet, and the fear of venturing into the center of the arena. The dependent variable in this test is the amount of time it takes for an animal to begin eating the pellet, and this latency has been used as an index of anxiety-like behavior and antidepressant activity because it is decreased by classical anxiolytic drugs such as benzodiazepines (Bodnoff et al. “The effects of chronic antidepressant treatment in an animal model of anxiety.” 1988 Psychopharmacology (Berl) 95(3):298-302; Bodnoff et al. “A comparison of the effects of diazepam versus several typical and atypical anti-depressant drugs in an animal model of anxiety.” 1989 Psychopharmacology (Berl) 97(2):277-9; Shephard and Broadhurst, “Hyponeophagia and arousal in rats: effects of diazepam, 5-methoxy-N,N-dimethyltryptamine, d-amphetamine and food deprivation.” 1982 Psychopharmacology (Berl) 78(4):[…]) as well as antidepressants.
NSF is performed as described previously by Santarelli, et al. (2003) with some modifications. Briefly, male F344 rats were dosed orally once daily (q.d.) for 20-days with vehicle (DI water; n=10), 12.5 mg/kg fluoxetine (n=11) or 0.3 mg/kg MCC-257 (n=11). Animals were food deprived for 24 hours prior to testing. On day 22, 60 minutes after drug administration, NSF was performed in an open field chamber. A single pellet of rodent chow was placed in the center of the open field. […] Saved videos were subsequently scored by blinded observers and the latency to eat the pellet was recorded.

[3] = test system: neural progenitor cells within the dentate gyrus of the hippocampus; test: In vivo neurogenesis, BrdU positive cell counts in the dentate gyrus; set-up: species or system rat; conditions: 0.3 mg/kg orally q.d., chronic (26 or 28 days as printed); vs vehicle; FIG. 3
Description: The white bar represents vehicle (DI water, n=11) and the grey bar represents MCC-257 dosed at 0.3 mg/kg (n=10). Both vehicle and MCC-257 were dosed orally once daily (q.d.) for 26 days prior to analysis. […] Data are presented as the number of BrdU cells per cubic mm of dentate gyrus. […] Values are the mean±SEM.
For the in vivo neurogenesis assays, male F344 rats were dosed orally once daily (q.d.) for 28-days with vehicle (DI water; n=11) or 0.3 mg/kg MCC-257 ([…]). BrdU was administered once daily between days 9 and 14 (100 mg/kg/day, i.p.).

male F344 rats [4] = test: Novel Object Recognition (NOR) cognition assay; format: in vivo, rat; conditions: 48-hour delay; increasing oral doses q.d., chronic; vs vehicle; FIG. 4
Description: Behavioral testing was carried out as described in Example 2. Data is presented as the mean percentage of visits to a novel object. The white bar represents vehicle (DI water: n=11) and grey bars represent increasing doses of MCC-257 (0.1 mg/kg, n=10; 0.3 mg/kg, n=10; 3.0 mg/kg, n=10). All animals were dosed orally once daily (q.d.) for 29 days prior to testing. […] Values are the mean±SEM.
NOR was performed as described previously by Broadbent et al., (“Spatial memory, recognition memory, and the hippocampus.” 2004 PNAS 101(40):14511-14520) with some modifications. The apparatus consisted of an open field (45×45×50 cm high) made of polycarbonate. Triplicate copies were used of the objects to be discriminated. Care was taken to ensure that the pair of objects tested were made from the same material so that they could not be distinguished readily by olfactory cues although they had very different appearances. Each test session consisted of two phases. In the initial familiarization phase, two identical objects (A1 and A2) were placed in the far corners of the box arena. A rat was then placed in the middle of the arena and allowed 15 minutes to explore both objects. Exploration of an object was defined as directing the nose to the object at a distance of less than 2 cm and/or touching it with the nose. After a delay of 48-hours the rat was re-introduced to the arena (“test phase”). […]

Compound | EC50 ([1]; Homo sapiens, Neural stem cell, read-out: EC50 of neuronal differentiation) [nM] | effect on neuronal differentiation ([1]; concentration response curve, percent of neuronal positive control, FIG. 1) | latency to eat a food pellet in a novel environment (male F344 rats [2]; 0.3 mg/kg orally q.d. for 20 days) | BrdU positive cells per cubic mm in granule cell layer of dentate gyrus (neurogenesis) [3] | preference for the novel object (percent visits) (male F344 rats [4]) | latency to eat a food pellet in a novel environment (male F344 rats [2]; 12.5 mg/kg orally q.d. for 20 days) | latency to eat a food pellet in a novel environment (male F344 rats [2]; 12.5 mg/kg orally q.d. for 20 days, listed as Fluoxetine)
CO[C@]1(C(=O)N[C@@H]2CC[C@@]3(C)[C@@H](CC[C@@H]4[C@@H]3CC[C@]3(C)[C@@H]([C@H](C)CCCC(C)C)CC[C@@H]43)C2)C[C@H](O)[C@@H](NC(C)=O)[C@H]([C@H](O)[C@H](O)CO)O1 [MCC-257, 5-acetamido-N-(5alpha-cholestan-3alpha-yl)-3,5-dideoxy-2-O-methyl-D-glycero-alpha-D-galacto-non-2-ulopyranosonamide] | 90 | promoted neuronal differentiation in a concentration dependent manner | significantly reduced latency to eat | significant increase; also recorded: significantly increased neurogenesis | dose dependent increase in preference for the novel object; also recorded: dose-related increase in preference for the novel object |  | 
CNCCC(Oc1ccc(C(F)(F)F)cc1)c1ccccc1 (stereo not shown) [fluoxetine, reference compound] |  |  |  |  |  | significantly reduced | significantly reduced latency to eat
